Experimental findings from US12421240B2, “Hydropyrazino[1,2-d][1,4]diazepine compounds for the treatment of autoimmune disease” (Hoffmann-La Roche Inc., priority 2019, dated 2025) are described below.

The target of the assay is T1, human TLR7 (Homo sapiens, UniProt Q9NYK1).
T1 sequence (Q9NYK1 27-1049): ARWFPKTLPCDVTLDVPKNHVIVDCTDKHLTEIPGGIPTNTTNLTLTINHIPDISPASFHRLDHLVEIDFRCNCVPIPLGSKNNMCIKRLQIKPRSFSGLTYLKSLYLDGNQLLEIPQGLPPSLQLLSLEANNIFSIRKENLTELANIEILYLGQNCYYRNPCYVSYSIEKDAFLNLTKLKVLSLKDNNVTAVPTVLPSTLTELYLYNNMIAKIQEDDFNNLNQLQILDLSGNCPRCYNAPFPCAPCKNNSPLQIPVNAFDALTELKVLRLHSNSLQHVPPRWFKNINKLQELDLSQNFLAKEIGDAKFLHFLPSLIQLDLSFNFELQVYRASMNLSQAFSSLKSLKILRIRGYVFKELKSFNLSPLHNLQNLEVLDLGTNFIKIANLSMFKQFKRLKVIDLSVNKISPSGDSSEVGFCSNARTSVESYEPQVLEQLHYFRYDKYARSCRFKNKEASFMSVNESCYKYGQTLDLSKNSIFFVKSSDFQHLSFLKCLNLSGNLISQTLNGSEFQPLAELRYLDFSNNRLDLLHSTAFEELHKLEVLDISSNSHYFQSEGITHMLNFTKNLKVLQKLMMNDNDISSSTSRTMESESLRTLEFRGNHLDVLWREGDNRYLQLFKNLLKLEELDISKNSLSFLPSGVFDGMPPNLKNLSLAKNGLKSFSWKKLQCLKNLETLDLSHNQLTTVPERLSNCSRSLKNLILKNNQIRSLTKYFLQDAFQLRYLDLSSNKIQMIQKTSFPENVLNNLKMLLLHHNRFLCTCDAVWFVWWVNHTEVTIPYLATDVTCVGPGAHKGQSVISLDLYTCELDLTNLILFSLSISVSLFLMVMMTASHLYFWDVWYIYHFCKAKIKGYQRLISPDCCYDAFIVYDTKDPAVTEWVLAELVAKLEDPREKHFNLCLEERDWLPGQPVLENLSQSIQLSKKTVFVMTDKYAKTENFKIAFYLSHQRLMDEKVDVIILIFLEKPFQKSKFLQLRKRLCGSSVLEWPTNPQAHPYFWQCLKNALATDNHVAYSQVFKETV
Briefly: HEK293-Blue-hTLR-7 cells assay (SEAP reporter, R848 stimulation). In kind it is cell-based. The note with it: HEK293-Blue-hTLR7 cells, R848 ligand, 20 hrs; read-out: HEK/hTLR7 IC50. As for the experimental part: The following tests were carried out in order to determine the activity of the compounds of formula (I), (Ia) or (Ib) in HEK293-Blue-hTLR-7/8/9 cells assay.
HEK293-Blue-hTLR-7 Cells Assay:
A stable HEK293-Blue-hTLR-7 cell line was purchased from InvivoGen (Cat. #: hkb-htlr7, San Diego, California, USA). These cells were originally designed for studying the stimulation of human TLR7 by monitoring the activation of NF-κB. A SEAP (secreted embryonic alkaline phosphatase) reporter gene was placed under the control of the IFN-β minimal promoter fused to five NF-κB and AP-1-binding sites. The SEAP was induced by activating NF-κB and AP-1 via stimulating HEK-Blue hTLR7 cells with TLR7 ligands. Therefore the reporter expression was declined by TLR7 antagonist under the stimulation of a ligand, such as R848 (Resiquimod), for incubation of 20 hrs. The cell culture supernatant SEAP reporter activity was determined using QUANTI-Blue™ kit (Cat. #: rep-qb1, Invivogen, San Diego, Ca., USA) at a wavelength of 640 nm, a detection medium that turns purple or blue in the presence of alkaline phosphatase.
HEK293-Blue-hTLR7 cells were incubated at a density of 250,000-450,000 cells/mL in a volume of 170 μL in a 96-well plate in Dulbecco's Modified Eagle's medium (DMEM) containing 4.5 g/L glucose, 50 U/mL penicillin, […], […], 2 mM L-glutamine, 10% (v/v) heat-inactivated fetal bovine serum with addition of 20 μL test compound in a serial dilution in the presence of final DMSO at 1% and 10 μL of 20 uM R848 in above DMEM, perform incubation under 37° C. in a CO2 incubator for 20 hrs. Then 20 μL of the supernatant from each well was incubated with 180 μL Quanti-blue substrate solution at 37° C. for 2 hrs and the absorbance was read at 620655 nm using a spectrophotometer. The signaling pathway that TLR7 activation leads to downstream NF-κB activation has been widely accepted, and therefore similar reporter assay was modified for evaluating TLR7 antagonist.
As for `C[C@@H]1CN(c2ccc(C#N)c3ncccc23)C[C@@H]2CCN(Cc3ccc(N4CCNCC4)cn3)CCN21` [Example 19, 5-[(4R,10aS)-4-methyl-8-[(5-piperazin-1-yl-2-pyridyl)methyl]-1,3,4,6,7,9,10,10a-octahydropyrazino[1,2-d][1,4]diazepin-2-yl]quinoline-8-carbonitrile], the IC50 came out at 4.8 nM.

`C[C@@H]1CN(c2ccc(C#N)c3ncccc23)C[C@@H]2CCN(Cc3ccc(N4C[C@@H](N)[C@@H](F)C4)cn3)CCN21` [Example 20, 5-[(4R,10aS)-8-[[5-[(3R,4S)-3-amino-4-fluoro-pyrrolidin-1-yl]-2-pyridyl]methyl]-4-methyl-1,3,4,6,7,9,10,10a-octahydropyrazino[1,2-d][1,4]diazepin-2-yl]quinoline-8-carbonitrile]: the IC50 was determined as 1.6 nM.

With `C[C@@H]1CN(c2ccc(C#N)c3ncccc23)C[C@@H]2CCN(Cc3ccc(N4CCOC[C@H](N)C4)cn3)CCN21` [Example 21, 5-[(4R,10aS)-8-[[5-[(6R)-6-amino-1,4-oxazepan-4-yl]-2-pyridyl]methyl]-4-methyl-1,3,4,6,7,9,10,10a-octahydropyrazino[1,2-d][1,4]diazepin-2-yl]quinoline-8-carbonitrile], the IC50 turned out to be 59.9 nM. Under `CO[C@@H]1CN(c2ccc(CN3CC[C@H]4CN(c5ccc(C#N)c6ncccc56)C[C@@H](C)N4CC3)nc2)C[C@H]1N` [Example 22, 5-[(4R,10aS)-8-[[5-[(3R,4R)-3-amino-4-methoxy-pyrrolidin-1-yl]-2-pyridyl]methyl]-4-methyl-1,3,4,6,7,9,10,10a-octahydropyrazino[1,2-d][1,4]diazepin-2-yl]quinoline-8-carbonitrile] stands 4.9 nM; under `C[C@@H]1CN(c2ccc(C#N)c3ncccc23)C[C@@H]2CCN(Cc3ncc(N4CCNCC4)cc3F)CCN21` [Example 23, 5-[(4R,10aS)-8-[(3-fluoro-5-piperazin-1-yl-2-pyridyl)methyl]-4-methyl-1,3,4,6,7,9,10,10a-octahydropyrazino[1,2-d][1,4]diazepin-2-yl]quinoline-8-carbonitrile], 2.9 nM; under `CO[C@@H]1CN(c2cnc(CN3CC[C@H]4CN(c5ccc(C#N)c6ncccc56)C[C@@H](C)N4CC3)c(F)c2)C[C@H]1N` [Example 24, 5-[(4R,10aS)-8-[[5-[(3R,4R)-3-amino-4-methoxy-pyrrolidin-1-yl]-3-fluoro-2-pyridyl]methyl]-4-methyl-1,3,4,6,7,9,10,10a-octahydropyrazino[1,2-d][1,4]diazepin-2-yl]quinoline-8-carbonitrile], 3.2 nM. Under `CO[C@@H]1CN(c2cnc(CN3CC[C@H]4CN(c5ccc(C#N)n6nccc56)C[C@@H](C)N4CC3)c(F)c2)C[C@H]1N` [Example 26, 4-[(4R,10aS)-8-[[5-[(3R,4R)-3-amino-4-methoxy-pyrrolidin-1-yl]-3-fluoro-2-pyridyl]methyl]-4-methyl-1,3,4,6,7,9,10,10a-octahydropyrazino[1,2-d][1,4]diazepin-2-yl]pyrazolo[1,5-a]pyridine-7-carbonitrile] stands 35.8 nM. Under `CO[C@@H]1CN(c2cnc(CN3CC[C@H]4CN(c5ccc(C#N)n6ncc(F)c56)C[C@@H](C)N4CC3)c(F)c2)C[C@H]1N` [Example 27, 4-[(4R,10aS)-8-[[5-[(3R,4R)-3-amino-4-methoxy-pyrrolidin-1-yl]-3-fluoro-2-pyridyl]methyl]-4-methyl-1,3,4,6,7,9,10,10a-octahydropyrazino[1,2-d][1,4]diazepin-2-yl]-3-fluoro-pyrazolo[1,5-a]pyridine-7-carbonitrile] stands 8.5 nM; under `C[C@@H]1CN(c2cc(=O)n(C)c3ncccc23)C[C@@H]2CCN(Cc3ccc4c(c3)CNCC4)CCN21` [Example 28, 4-[(4R,10aS)-4-methyl-8-(1,2,3,4-tetrahydroisoquinolin-7-ylmethyl)-1,3,4,6,7,9,10,10a-octahydropyrazino[1,2-d][1,4]diazepin-2-yl]-1-methyl-1,8-naphthyridin-2-one], 36.3 nM.
